These results are taken from patent publication US7547752B2, “Scalp treatment” (Unilever Home & Personal Care USA division of Conopco, Inc., priority 2002, dated 2009).

This experiment concerns scalp itch in panellists with self-perceived dandruff. In words: Clinical anti-itch study: CLA lotion or lotion base applied before AD or NAD shampoo wash, investigator-scored itch degree. The experiment is classed as in vivo, human. Conditions: lotion applied one hour before hair wash, shampoo 3 times a week, weekly assessment, FIG. 1. The source says:
The effect of conjugated linoleic acid, used in conjunction with anti-dandruff (AD) and non anti-dandruff (NAD) shampoo, was clinically assessed using the following protocol.
The conjugated linoleic acid is used as a lotion (composition B). The lotion base comprises Tween™ 20, Carbopol™ 980, Sodium Hydroxide, Natrosol™ 250HHR, EDTA-2Na, glydant plus and water (composition A). The use of the lotion is followed by a shampoo wash with an NAD shampoo (composition C) or an AD shampoo (composition D).
A randomised monadic double blind study design was used based on a total of 240 screened panellists, male and female, with self-perceived dandruff. All 240 panellists used a placebo shampoo (composition C) in their normal hair wash routine for 4 successive weeks.
The panellists were divided into four groups (total number of panellists=240):
Group 1: 60 panellists. All panellists wash their hair with NAD shampoo at home 3 times a week and apply CLA lotion one hour prior to washing their hair.
Group 2: 60 panellists. All panellists wash their hair with NAD shampoo at home 3 times a week and apply lotion base (composition A) one hour prior to washing their hair.
Group 3: 60 panellists. All panellists wash their hair with AD shampoo at home 3 times a week and apply CLA lotion one hour prior to washing their hair.
Group 4: 60 panellists. […]

In the case of Conjugated linoleic acid [CLA], the “degree of itch of the scalp (itch degree, standard scale 0-4)” value is “can increase the degree of scalp itch”.
